Measurements taken from patent US10233195B2, “Anti-fibrotic pyridinones” (InterMune, Inc., priority 2014, dated 2019).

System: TGF-b induced Endothelin-1 production
Test: ET-1 assay: inhibitory effect on TGF-b induced endothelin-1 production
Format: cell-based
Conditions: Homo sapiens, Fibroblast; fibroblasts, stimulant (TGFb, serum, LPA etc), ET-1 in media by ELISA, 4-parameter fit
Description: Assay of Inhibitory Effect on TGF-b Induced Endothelin-1 Production
Fibroblasts (primary human lung and dermal, HFL-1, 3T3 etc) are seeded in 96-well plates at ˜15000 cells/well and serum starved for 0-48 hours. After media exchange, compounds serially diluted in DMSO are added to the cells. After a brief incubation of ˜30 min, stimulants (TGFb, serum, LPA etc) are added followed by further incubation for 16-48 hours. Media is then harvested and stored frozen in plate format for later endothelin-1 (ET-1) determination by ELISA. Toxicity measurements are made using the ATPlite kit (Perkin-Elmer). ET-1 is quantified using an ELISA kit (R&D Systems). The amount of ET-1 produced in the assay wells are back-calculated using the ELISA standard. The ability of a compound to inhibit ET-1 production is typically analyzed by fitting dose-response curves to a 4-parameter logistic function to obtain an EC50 value. A measure of cytotoxicity (CC50) is likewise reported from the same experiment using the ATPlite data.
Compounds of some embodiments were prepared according to synthetic methods described herein and assay data obtained for EC50 against ET-1. The assay data obtained is presented in Table 2, in which A=less than 50 μM, B=greater than or equal to 50 μM and less than or equal to 200 μM; and C=greater than 200 μM.

Structure (SMILES) | EC50 [µM]
CC(C)OC(=O)Nc1cc(=O)n(-c2ccc(OC(F)(F)F)cc2)cc1-c1cnn(C)c1 [Compound 139] | > 200
COC(=O)Nc1cc(=O)n(-c2ccc(OC(F)(F)F)cc2)cc1-c1cnn(C)c1 [Compound 138] | > 200
Cc1ccc(=S)n(-c2ccc(OC(C)C)cc2)c1 [Compound 334] | > 200
CCOc1ccc(CNc2cc(=O)n(-c3ccc(OC(F)(F)F)cc3)cc2-c2cnn(C)c2)cc1 [Compound 530] | < 50
O=c1cc(OCCN2CCOCC2)c(-c2ccc(F)cc2)cn1-c1ccc(OC(F)(F)F)cc1 [Compound 92] | 50 to 200
CCC(=O)Nc1cc(=O)n(-c2ccc(OC(F)(F)F)cc2)cc1-c1ccc(F)cc1 [Compound 106] | > 200
O=c1c(-c2ccc(F)cc2)c(-c2ccc(OC(F)(F)F)cc2)c1=O [Compound 666] | < 50
CC(C)C(=O)Nc1cc(=O)n(-c2ccc(OC(F)(F)F)cc2)cc1-c1ccc(F)cc1 [Compound 108] | > 200
CCOc1ccc(-n2cc(-c3ccccc3)c(C)cc2=O)c(C)c1 [Compound 168] | 50 to 200
O=c1cc(OCc2ccccc2)c(-c2ccc(F)cc2)cn1-c1ccc(OC(F)(F)F)cc1 [Compound 91] | > 200
Cc1cc(=O)n(-c2ccc(OC(F)(F)F)cc2)cc1-c1cccc2c1NC(=O)CO2 [Compound 426] | > 200
Cn1cc(-c2cn(-c3ccc(OC(F)(F)F)cc3)c(=O)c3ccc(C(F)(F)F)nc23)cn1 [Compound 39] | < 50
Cc1cc(=O)n(-c2ccc(OC(F)(F)F)cc2)cc1-c1ccncc1 [Compound 242] | > 200
Cc1cc(=O)n(-c2ccc(OC(F)(F)F)cc2C)cc1-c1ccc(F)cc1 [Compound 186] | < 50
CCn1nnc2c(-c3cn[nH]c3)cn(-c3ccc(OC(F)(F)F)cc3)c(=O)c21 [Compound 634] | < 50
CCCCC(=O)Nc1cc(=O)n(-c2ccc(OC(F)(F)F)cc2)cc1-c1ccc(F)cc1 [Compound 107] | > 200
Cn1cc(-c2cc(=O)n(-c3ccc(OC(F)(F)F)cc3)cc2-c2cnn(C)c2)cn1 [Compound 708] | 50 to 200
Cc1cc(=O)n(-c2ccc(Cl)cc2)cc1-c1ccc(F)cc1 [Compound 181] | > 200
COCCOc1cc(=O)n(-c2ccc(OC(F)(F)F)cc2)cc1-c1ccc(F)cc1 [Compound 96] | > 200
Cc1cc(=O)n(-c2ccc(OC(F)(F)F)cc2)cc1-c1ccc(Cl)c(Cl)c1 [Compound 197] | 50 to 200
COc1ccc(-c2ccc(=O)n(-c3cncnc3)c2)cc1 [Compound 311] | > 200

Structure (SMILES) | EC50 [µM]
Cc1cc(=O)n(-c2ccc3scnc3c2)cc1-c1cnn(C)c1 [Compound 225] | > 200
O=c1c2nccnc2c(-c2cnn(CCO)c2)cn1-c1ccc(OC(F)(F)F)cc1 [Compound 577] | 50 to 200
COc1cccc(-n2cc(-c3ccc(S(N)(=O)=O)cc3)ccc2=O)c1 [Compound 331] | > 200
Cc1cc(=O)n(-c2cccc(C(F)(F)F)c2)cc1-c1ccc(F)cc1 [Compound 177] | 50 to 200
Cc1cc(=O)n(-c2ccc(OC(F)(F)F)cc2)cc1-n1ccnc1 [Compound 244] | > 200
CCOc1ccc(CNc2cc(=O)n(-c3ccc(OC(F)(F)F)cc3)cc2-c2cnn(C)c2)c(F)c1 [Compound 528] | < 50
CCOc1ccc(-n2cc(-c3cnn(C)c3)c(NCc3cc(F)cc(F)c3)cc2=O)c(C)c1 [Compound 703] | < 50
O=c1ccc(-c2cn[nH]c2)cn1-c1cccc(C(F)(F)F)c1 [Compound 373] | > 200
O=c1cc(OCCN2CCS(=O)(=O)CC2)c(-c2ccc(F)cc2)cn1-c1ccc(OC(F)(F)F)cc1 [Compound 94] | > 200
Cn1cc(-c2cn(-c3ccc(OC(F)(F)F)cc3)c(=O)cc2Oc2cc(Cl)cc(C#N)c2)cn1 [Compound 156] | > 200
O=C1Cc2ccccc2N1c1ccc(OC(F)(F)F)cc1 [Compound 81] | 50 to 200
COc1cccc(-n2cc(-c3c(C)n[nH]c3C)ccc2=O)c1 [Compound 378] | 50 to 200
CCn1cnc2c(-c3cn[nH]c3)cn(-c3ccc(OC(F)(F)F)cc3)c(=O)c21 [Compound 669] | < 50
Cn1cc(-c2cn(-c3ccc(OC(F)(F)F)cc3)c(=O)cc2NCc2c(Cl)cccc2Cl)cn1 [Compound 132] | > 200
O=c1ccc(-c2cccc(Cl)c2)cn1-c1ccncc1 [Compound 323] | > 200
Cn1cc(-c2cn(-c3ccc(OC(F)(F)F)cc3)c(=O)cc2Oc2ccc(Cl)cc2)cn1 [Compound 412] | > 200
O=c1ccc(Br)cn1-c1ccc(OC(F)(F)F)cc1 [Compound 270] | > 200
Cn1cc(-c2cn(-c3ccc(OC(F)(F)F)cc3)c(=O)c3c2CCCC3)cn1 [Compound 33] | < 50
CN1CCC(Oc2cc(=O)n(-c3ccc(OC(F)(F)F)cc3)cc2-c2ccc(F)cc2)CC1 [Compound 95] | < 50
Cc1cc(=O)n(-c2ccc(C(F)(F)F)cc2)cc1-c1ccc(F)cc1 [Compound 173] | > 200
Cc1cc(=O)n(-c2ccc(OC(F)(F)F)cc2)cc1-c1cccc2c1N(C)C(=O)CO2 [Compound 427] | > 200

Structure (SMILES) | EC50 [µM]
CCOc1ccc(CNc2cc(=O)n(-c3ccc(OCC)cc3C)cc2-c2cnn(C)c2)c(C)c1 [Compound 706] | < 50
CC(C)Oc1ccc(-n2cc(-c3cn[nH]c3)ccc2=O)cc1 [Compound 369] | 50 to 200
Cc1ccc(=O)n(Cc2ccccc2)c1 [Compound 78] | > 200
O=c1ccc(-c2cccc(Cl)c2)cn1-c1ccc(Cl)cc1 [Compound 314] | < 50
Cn1cc(-c2cn(-c3ccc(OC(F)(F)F)cc3)c(=O)c3nn(CCF)nc23)cn1 [Compound 679] | < 50
Cn1cc(-c2cn(-c3ccc(OC(F)(F)F)cc3)c(=O)cc2C(F)(F)F)cn1 [Compound 240] | > 200
CCn1nnc2c(=O)[nH]cc(-c3cnn(C)c3)c21 [Compound 622] | > 200
NS(=O)(=O)c1ccc(-c2ccc(=O)n(-c3ccc(Cl)cc3)c2)cc1 [Compound 327] | > 200
Cc1cc(=O)n(-c2ccc(OC(F)(F)F)cc2)cc1-c1ccc2c(c1)OC(C)(C)O2 [Compound 211] | > 200
CCOc1ccc(-n2cc(-c3ccc4scnc4c3)c(C)cc2=O)c(C)c1 [Compound 552] | > 200
COc1ccc(-c2ccc(=O)n(-c3ccccc3F)c2)cc1 [Compound 312] | > 200
Cc1nc2c(=O)n(-c3ccc(OC(F)(F)F)cc3)cc(-c3ccc(F)cc3)c2o1 [Compound 568] | > 200
O=C(Nc1cc(=O)n(-c2ccc(OC(F)(F)F)cc2)cc1-c1ccc(F)cc1)OCc1ccccc1 [Compound 103] | > 200
Cn1cc(-c2cn(-c3ccc(OC(F)(F)F)cc3)c(=O)cc2O)cn1 [Compound 121] | > 200
Cn1cc(-c2cn(-c3ccc(OC(F)(F)F)cc3)c(=O)c3c2ccn3CCO)cn1 [Compound 614] | < 50
O=c1ccc(Br)cn1-c1ccc(F)cc1 [Compound 265] | > 200
Cc1nc2c(-c3cnn(Cc4ccccc4)c3)cn(-c3ccc(OC(F)(F)F)cc3)c(=O)c2s1 [Compound 586] | < 50
CCn1cc(-c2cn(-c3ccc(OC(F)(F)F)cc3)c(=O)c3c2ncn3CC)cn1 [Compound 670] | < 50
CCn1ccc2c(-c3cnn(C)c3)c[nH]c(=O)c21 [Compound 611] | < 50
